In patent publication US20230159527A1, “COMPOUNDS AS BCL-2 INHIBITORS” (Fochon Pharmaceuticals, Ltd., priority 2020, published 2023):

Experiments:
Type in all cases: cell-based
[1] = tested on: RS4;11 cells; assay: Cell proliferation assay, RS4;11 cells (MTS, 72 h); settings: Homo sapiens, RS4;11 cell proliferation
Experimental: MTS testing kit was purchased from Promega. The RPMI-1640, Fetal bovine serum and Penicillin-Streptomycin were purchased from Gibco. Dimethyl sulfoxide (DMSO) was purchased from Sigma.
To investigate whether a compound is able to inhibit the activity of Bcl-2 in cells, a mechanism-based assay using RS4;11 (ATCC® CRL-1873™) cell was developed. In this assay, inhibition of Bcl-2 was detected by the inhibition of RS4;11 cells proliferation. RS4;11 cells were cultured in culture flasks to 40-80% confluence in RPMI-1640 plus 10% fetal bovine serum. Cells were collected and plated onto 96-well plates at desired cell density (30000 cells/well). Plates were incubated overnight at 37° C., with 5% CO2 to adhere. Compounds were added to the plates, and the final compound concentrations were 10000, 3333, 1111, […], 41, 14, 4.6 and 1.5 nM. Plates plated with RS4;11 cells were placed at 37° C., with 5% CO2 for 72 h. 20 μl MTS/100 μl medium mixture solution were added to each well and incubate the plates for exactly 2 hours. The reaction was stopped by adding 25 μl 10% SDS per well. Measure absorbance at 490 nm and 650 nm (reference wavelength). IC50 was calculated using GraphPad Prism 5.0.

[2] = tested on: DoHH2 cells; assay: Cell proliferation assay, DoHH2 cells (MTS, 120 h); settings: Homo sapiens, DOHH-2
In short: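 DoHH2 cells in RPMI-1640 with 10% FBS were plated at 5000/well and rested 4 h. They were then exposed to compound at nine final concentrations (10000 to 1.5 nM) for 120 h at 37 °C. Viability was read by MTS (2 h, A490) and IC50 derived by curve fitting.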

[3] = tested on: Toledo cells; assay: Cell proliferation assay, Toledo cells (MTS, 72 h); settings: Homo sapiens, Toledo cells, MTS, read-out: Toledo IC50
In short: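 IC50 was derived from 490 nm absorbance after a 2 h MTS step. Before that, compounds at 1.5–10000 nM final (nine points) acted on Toledo cells for 72 h at 37 °C, 5% CO2. Cells were seeded at 30000/well in 10% FBS RPMI-1640 and rested 4 h before dosing.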

## CC(C)c1ccccc1[C@@H]1CCCN1C1CC2(CCN(c3ccc(C(=O)NS(=O)(=O)c4cc5c(c([N+](=O)[O-])c4)O[C@H](CN4CCOCC4)CO5)c(Oc4cnc5[nH]ccc5c4)c3)CC2)C1 (single isomer, unassigned) [Example E-39, 2-((1H-pyrrolo [2,3-b]pyridin-5-yl)oxy)-4-(2-((R or S)-2-(2-isopropylphenyl)pyrrolidin-1-yl)-7-azaspiro[3.5]nonan-7-yl)-N-(((R)-2-(morpholinomethyl)-8-nitro-2,3-dihydrobenzo [b][1,4]dioxin-6-yl)sulfonyl) benzamide]
[1]
  IC50: ≤ 1 nM
[2]
  IC50: ≤ 1 nM
[3]
  IC50: 1 nM

## CC(C)c1ccccc1[C@H]1CCCN1C1CC2(CCN(c3ccc(C(=O)NS(=O)(=O)c4cnc(NC[C@H]5CC[C@](C)(O)CC5)c([N+](=O)[O-])c4)c(Oc4cnc5[nH]ccc5c4)c3)CC2)C1 [Example A-7b]
[1]
  IC50: ≤ 1 nM
[2]
  IC50: ≤ 1 nM
[3]
  IC50: 1 nM

## CN1CCN(C2CC3(CCN(c4ccc(C(=O)NS(=O)(=O)c5cnc(NCC6CCOCC6)c([N+](=O)[O-])c5)c(Oc5cnc6[nH]ccc6c5)c4)CC3)C2)[C@H](c2ccccc2C2CC2)C1 (single isomer, unassigned) [Example A-39a, (R or S)-2-((1H-pyrrolo[2,3-b]pyridin-5-yl)oxy)-4-(2-(2-(2-cyclopropyl-phenyl)-4-methylpiperazin-1-yl)-7-azaspiro[3.5]nonan-7-yl)-N-((5-nitro-6-(((tetrahydro-2H-pyran-4-yl)methyl)amino)pyridin-3-yl)sulfonyl) benzamide]
[1]
  IC50: ≤ 1 nM
[2]
  IC50: ≤ 1 nM
[3]
  IC50: 1 nM

## CC(C)c1ccccc1[C@@H]1COCCN1C1CC2(CCN(c3ccc(C(=O)NS(=O)(=O)c4cnc(NC[C@H]5CC[C@@](C)(O)CC5)c([N+](=O)[O-])c4)c(Oc4cnc5[nH]ccc5c4)c3)CC2)C1 (single isomer, unassigned) [Example A-56a, 2-((1H-pyrrolo[2,3-b]pyridin-5-yl)oxy)-N-((6-((((1s,4s)-4-hydroxy-4-methylcyclohexyl)methyl)amino)-5-nitropyridin-3-yl)sulfonyl)-4-(2-((R or S)-3-(2-isopropylphenyl)morpho-lino)-7-azaspiro[3.5]nonan-7-yl) benzamide]
[1]
  IC50: ≤ 1 nM
[2]
  IC50: ≤ 1 nM
[3]
  IC50: 1 nM

## O=C(NS(=O)(=O)c1cnc(NCC2C3COCC23)c([N+](=O)[O-])c1)c1ccc(N2CCC3(CC2)CC(N2CCC4C[C@]42c2ccccc2C2CC2)C3)cc1Oc1cnc2[nH]ccc2c1 (single isomer, unassigned) [Example A-97b, 2-((1H-pyrrolo[2,3-b]pyridin-5-yl)oxy)-N-((6-(((3-oxabicyclo[3.1.0]hexan-6-yl)methyl)amino)-5-nitro-pyridin-3-yl)sulfonyl)-4-(2-((1R or 1S)-1-(2-cyclopropylphenyl)-2-aza-bicyclo[3.1.0]hexan-2-yl)-7-azaspiro [3.5]nonan-7-yl)benzamide]
[1]
  IC50: ≤ 1 nM
[2]
  IC50: ≤ 1 nM
[3]
  IC50: 6 nM

## C[C@]1(O)CC[C@H](CNc2ncc(S(=O)(=O)NC(=O)c3ccc(N4CCC5(CC4)CC(N4CCNC[C@H]4c4ccccc4C4CC4)C5)cc3Oc3cnc4[nH]ccc4c3)cc2[N+](=O)[O-])CC1 [Example A-37, 2-((1H-pyrrolo[2,3-b]pyridin-5-yl)oxy)-4-(2-((R)-2-(2-cyclopropyl-phenyl)piperazin-1-yl)-7-azaspiro [3.5]nonan-7-yl)-N-((6-((((1r,4r)-4-hydroxy-4-methylcyclohexyl)methyl)amino)-5-nitropyridin-3-yl)sulfonyl)benzamide]
[1]
  IC50: ≤ 1 nM
[2]
  IC50: ≤ 1 nM
[3]
  IC50: 1 nM
